Laboratory results from US4446136A, “Agents for improvement of peripheral blood flow” (Yamanouchi Pharmaceutical Co., Ltd., priority 1980, dated 1984).

Legend:
[1] = test system: Rat; experiment: Acute toxicity (LD50) in rat; format: in vivo; design: unit not given here; conditions: intravenous, intraperitoneal, subcutaneous
[2] = Antigenic activity of gelatin; conditions: by itself
[3] = test system: erythrocytes; experiment: Dose-response of gelatin on filtration and hemolysis of erythrocytes (Experiment 4(i)); format: cell-based
Protocol: (i) Following procedures similar to the Experiment 2 using a concentration of gelatin between 0-2.0 mg/ml, effects of the substance on the filtration ratios of erythrocytes through the membrane filter and the ratio of hemolysis were examined at various concentrations of gelatin.

[4] = Acute toxicity, overall (Experiment 5); format: in vivo; conditions: summary of Tables 1, 2 and 3
[5] = test system: Sheep; experiment: Acute toxicity (LD50 of gelatin) in sheep; format: in vivo; design: unit not given here; conditions: intravenous, intraperitoneal, subcutaneous
[6] = test system: human erythrocytes
Protocol: A mixture of 1 part of human blood and 1 part (v/v) of preservative solution (sodium citrate buffer containing glucose) was washed 4 to 5 times with physiological saline solution and then 2% (by volume) erythrocyte solution was prepared in physiological saline. In the next step, physiological saline solutions containing 0.05% gelatin, 0.1% α1 -acid glycoprotein, 0.1% polyethylene glycol, 0.1% γ-globulin, 0.1% ovomucoid, 0.1% dextran, 0.1% dextran sulfate, 0.1% chondroitin sulfate, or physiological saline alone were mixed with an equal volume of the erythrocyte suspension, and then each mixture was shaken mildly for 30 min at 37° C. Thereafter 1 ml of each mixture was subjected to filtration through a nitrocellulose membrane filter (13 mm in diameter and 5 μm in average size of micropores, made by Sartorius Co.) at 37° C. under a pressure of 80 mmHg/cm^2. The filtrate was immediately subjected to centrifugation for 2 min at 1,500 r.p.m. and from the supernatant, the ratio of hemolysis during filtration was calculated based on absorbance at 420 nm. As to the erythrocytes remaining on the filter, 5 ml of deionized water was added to the erythrocytes on the membrane filter by placing into a test tube, and the resulting hemolysis due to hypotonicis permitted a measurement of absorbance at 420 nm to calculate the ratio of filtered erythrocytes through the membrane.

[7] = test system: HeLa S3; experiment: Toxicity of gelatin to cells in culture; format: cell-based
[8] = test system: Lung fibroblasts of human embryo; experiment: Toxicity of gelatin to cells in culture; format: cell-based
[9] = test system: EB virus transformed lymphoblastoid cells P3HR-1; experiment: Toxicity of gelatin to cells in culture; format: cell-based
[10] = test system: blood flow in microvessels; experiment: Effects on microcirculation in vivo in mesenterium of rabbit with lowered blood pressure (Experiment 3); conditions: other substances, anesthetized rabbit, low arterial blood pressure

| Substance | LD50 of gelatin [1] | antigenic activity [2] | filtration ratio on further increase in concentration ([3]; above 0.5 mg/ml gelatin) | concentration at which filtration ratio of erythrocytes reached plateau ([3]; gelatin 0-2.0 mg/ml) | acute toxicity (in words) [4] | LD50 of gelatin [5] | ratio of passage (filtration) of erythrocytes through the filter ([6]; 0.05% gelatin, 0.1% other substances, 5 μm micropores, 37° C., 80 mmHg/cm^2) | ratio of hemolysis during filtration (in words) ([6]; 0.05% gelatin, 5 μm micropores, 37° C., vs physiological saline control) | Toxicity (50% growth inhibition) [7] | Toxicity (50% growth inhibition) [8] | Toxicity (50% growth inhibition) [9] | actions on microcirculation as observed for gelatin [10] | erythrocytes hemolysed during filtration ([6]; human, erythrocytes) |
| --- | --- | --- | --- | --- | --- | --- | --- | --- | --- | --- | --- | --- | --- |
| gelatin | > 1,000 | no antigenic activity | did not improve the filtration ratio | 0.5 mg/mL | very mild | > 1,000 | increased remarkably | reduced | > 100 µg/mL | > 100 µg/mL | > 100 µg/mL | – | – |
| dextran sulfate [reference compound] | – | – | – | – | – | – | – | – | – | – | – | did not exert any actions on microcirculation | 25-30% |
